Results reported in PMC4114247 (Cancer research, 2009).
“Also recorded” adds a separate entry of the source.

Columns and labels:
LNCaP cells = assay: Internalization into LNCaP cells; type: cell-based, human; settings: 100 nM, 0–2 hours
[1] = tested on: NCr nude mice bearing LNCaP xenografts; assay: Mouse tissue distribution, LNCaP xenografts; type: in vivo
[2] = co-injected with 50 mg/kg PMPA, 2 hours
[3] = male, athymic NCr-nu/nu, mouse, in vivo
[4] = male, athymic NCr-nu/nu, mouse, in vivo, 0.25 h
[5] = male, athymic NCr-nu/nu, mouse, in vivo, 1 h
[6] = male, athymic NCr-nu/nu, mouse, in vivo, 2 h

O=C(O)CC[C@H](NC(=O)N[C@@H](CCCCNC(=O)Nc1ccc(I)cc1)C(=O)O)C(=O)O [[^123I]MIP-1095, (S)-2-(3-((S)-1-carboxy-5-(3-(4-iodophenyl)ureido)pentyl)ureido)pentanedioic acid]
Internalization into LNCaP cells (LNCaP cells; 4 °C): but not at 4 °C | Internalization into LNCaP cells (LNCaP cells; 37 °C): internalized; also recorded: time dependent increase in radioactivity associated with the cellular pellet | Binding to LNCaP tumor xenografts with co-injected PMPA [1, 2]: blocked | Binding to kidneys with co-injected PMPA [1, 2]: blocked | Thyroid content (deiodination) [1, 3]: < 1 % of the total injected dose | tumor:blood ratio [1, 3]: > 100 | tumor:skeletal muscle ratio [1, 3]: > 100 | Ratio Tumor:Blood [1, 4]: 2.10 | Ratio Tumor:Skeletal Muscle [1, 4]: 8.79 | Tissue distribution: Adipose [1, 4]: 4.67 ± 4 %ID/g | Tissue distribution: Blood [1, 4]: 3.75 ± 0.7 %ID/g | Tissue distribution: Bone [1, 4]: 0.9 ± 0.27 %ID/g | Tissue distribution: Brain [1, 4]: 0.17 ± 0.05 %ID/g | Tissue distribution: Heart [1, 4]: 2.76 ± 0.54 %ID/g | Tissue distribution: Kidneys [1, 4]: 52.2 ± 12.2 %ID/g | Tissue distribution: Lg Intestine [1, 4]: 1.59 ± 1.45 %ID/g | Tissue distribution: Liver [1, 4]: 8.66 ± 1.54 %ID/g | Tissue distribution: Lungs [1, 4]: 4.53 ± 0.66 %ID/g | Tissue distribution: Sk.Muscle [1, 4]: 0.9 ± 0.2 %ID/g | Tissue distribution: Sm Intestine [1, 4]: 1.78 ± 1.05 %ID/g | Tissue distribution: Spleen [1, 4]: 9.65 ± 6.44 %ID/g | Tissue distribution: Stomach [1, 4]: 1.77 ± 0.52 %ID/g | Tissue distribution: Testes [1, 4]: 1.11 ± 0.51 %ID/g | Tissue distribution: Tumor (LNCaP xenograft) [1, 4]: 7.9 ± 2.43 %ID/g | Ratio Tumor:Blood [1, 5]: 10.6 | Ratio Tumor:Skeletal Muscle [1, 5]: 49.3 | Tissue distribution: Adipose [1, 5]: 2.34 ± 0.48 %ID/g | Tissue distribution: Blood [1, 5]: 1.95 ± 0.23 %ID/g | Tissue distribution: Bone [1, 5]: 0.55 ± 0.04 %ID/g | Tissue distribution: Brain [1, 5]: 0.06 ± 0.03 %ID/g | Tissue distribution: Heart [1, 5]: 1.31 ± 0.22 %ID/g | Tissue distribution: Kidneys [1, 5]: 65.3 ± 7.5 %ID/g | Tissue distribution: Lg Intestine [1, 5]: 0.87 ± 0.38 %ID/g | Tissue distribution: Liver [1, 5]: 11.3 ± 1.3 %ID/g | Tissue distribution: Lungs [1, 5]: 3.22 ± 0.68 %ID/g | Tissue distribution: Sk.Muscle [1, 5]: 0.42 ± 0.03 %ID/g | Tissue distribution: Sm Intestine [1, 5]: 4.4 ± 0.55 %ID/g | Tissue distribution: Spleen [1, 5]: 4.57 ± 0.77 %ID/g | Tissue distribution: Stomach [1, 5]: 3.02 ± 0.47 %ID/g | Tissue distribution: Testes [1, 5]: 0.86 ± 0.18 %ID/g | Tissue distribution: Tumor (LNCaP xenograft) [1, 5]: 20.7 ± 5.8 %ID/g | Ratio Tumor:Blood [1, 6]: 24.3 | Ratio Tumor:Skeletal Muscle [1, 6]: 80.8 | Tissue distribution: Adipose [1, 6]: 1.68 ± 1.15 %ID/g | Tissue distribution: Blood [1, 6]: 1.12 ± 0.48 %ID/g | Tissue distribution: Bone [1, 6]: 0.36 ± 0.11 %ID/g | Tissue distribution: Brain [1, 6]: 0.06 ± 0.02 %ID/g | Tissue distribution: Heart [1, 6]: 0.78 ± 0.28 %ID/g | Tissue distribution: Kidneys [1, 6]: 88.7 ± 23.8 %ID/g | Tissue distribution: Lg Intestine [1, 6]: 4 ± 2.82 %ID/g | Tissue distribution: Liver [1, 6]: 9.94 ± 2.53 %ID/g | Tissue distribution: Lungs [1, 6]: 2.3 ± 1.02 %ID/g | Tissue distribution: Sk.Muscle [1, 6]: 0.34 ± 0.17 %ID/g | Tissue distribution: Sm Intestine [1, 6]: 4.67 ± 0.86 %ID/g | Tissue distribution: Spleen [1, 6]: 3.73 ± 1.46 %ID/g | Tissue distribution: Stomach [1, 6]: 2.33 ± 1.79 %ID/g | Tissue distribution: Testes [1, 6]: 1.27 ± 0.31 %ID/g | Tissue distribution: Tumor (LNCaP xenograft) [1, 6]: 27.3 ± 3.4 %ID/g
